Reference: patent US20090181896A1, “Use of Natriuretic Peptide Receptor Antagonists to Treat Ocular, Otic and Nasal Edemetous Conditions” (ALCON RESEARCH, LTD., priority 2006, published 2009)

Key:
Format in all cases: cell-based
[1] = molecular target: T1, type-B natriuretic peptide receptor in immortalized human corneal epithelial (CEPI-17-CL4) cells (Homo sapiens, UniProt P20594); assay: Antagonism of CNP fragment-induced cGMP production in immortalized human corneal epithelial (CEPI-17-CL4) cells; details: mean ± SEM
T1 construct: primary human corneal epithelial cells (P-CEPI) were isolated from human donor eyes; endogenous in cells; host or cells: primary human corneal epithelial cells (P-CEPI) and SV40-immortalized human corneal epithelial cells (CEPI-17-CL4)
T1 sequence (P20594 23-1047): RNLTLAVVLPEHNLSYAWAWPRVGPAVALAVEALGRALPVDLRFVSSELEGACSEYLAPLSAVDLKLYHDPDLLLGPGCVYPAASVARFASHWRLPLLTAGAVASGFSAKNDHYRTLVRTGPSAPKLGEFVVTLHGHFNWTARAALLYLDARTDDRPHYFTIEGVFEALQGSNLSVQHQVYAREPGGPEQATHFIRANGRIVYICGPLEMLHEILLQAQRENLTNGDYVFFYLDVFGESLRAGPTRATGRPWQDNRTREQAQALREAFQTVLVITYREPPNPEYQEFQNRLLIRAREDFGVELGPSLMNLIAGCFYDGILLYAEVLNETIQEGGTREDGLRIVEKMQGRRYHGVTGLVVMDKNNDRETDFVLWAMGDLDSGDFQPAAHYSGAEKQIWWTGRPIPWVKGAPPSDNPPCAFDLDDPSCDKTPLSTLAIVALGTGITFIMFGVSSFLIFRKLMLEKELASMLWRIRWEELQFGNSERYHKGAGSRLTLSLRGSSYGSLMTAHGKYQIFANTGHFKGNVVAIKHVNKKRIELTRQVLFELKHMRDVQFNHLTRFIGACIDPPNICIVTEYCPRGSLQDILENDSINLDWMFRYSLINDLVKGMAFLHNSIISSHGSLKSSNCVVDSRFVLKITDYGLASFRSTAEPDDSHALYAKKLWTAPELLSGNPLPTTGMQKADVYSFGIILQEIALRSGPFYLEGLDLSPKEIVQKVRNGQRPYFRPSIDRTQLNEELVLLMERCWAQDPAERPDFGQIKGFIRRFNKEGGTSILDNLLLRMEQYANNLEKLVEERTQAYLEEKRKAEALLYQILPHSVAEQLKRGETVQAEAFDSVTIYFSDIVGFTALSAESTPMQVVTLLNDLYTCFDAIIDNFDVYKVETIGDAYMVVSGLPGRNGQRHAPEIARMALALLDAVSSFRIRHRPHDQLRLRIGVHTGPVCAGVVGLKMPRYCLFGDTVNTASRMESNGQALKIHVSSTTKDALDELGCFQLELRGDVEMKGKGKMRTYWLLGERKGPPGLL

[2] = molecular target: T2, Type-A natriuretic peptide receptor in human conjunctival epithelial cells (Chang cells) (Homo sapiens, UniProt P16066); assay: Natriuretic peptide-stimulated cGMP production (guanylyl cyclase activity, EIA) in human conjunctival epithelial cells (Chang cells); details: for Agonist character in words: cGMP production; for Intrinsic Activity (Emax; % Max. Response): cGMP production via type-A receptor
T2 construct: the most relevant cells are Chang cells (Clone 1-5C-4 Wong-Kilbourne Derivative); These cells were obtained from ATCC; host or cells: Chang cells (Clone 1-5C-4 Wong-Kilbourne Derivative), human conjunctival epithelial cells
T2 sequence (P16066 33-1061): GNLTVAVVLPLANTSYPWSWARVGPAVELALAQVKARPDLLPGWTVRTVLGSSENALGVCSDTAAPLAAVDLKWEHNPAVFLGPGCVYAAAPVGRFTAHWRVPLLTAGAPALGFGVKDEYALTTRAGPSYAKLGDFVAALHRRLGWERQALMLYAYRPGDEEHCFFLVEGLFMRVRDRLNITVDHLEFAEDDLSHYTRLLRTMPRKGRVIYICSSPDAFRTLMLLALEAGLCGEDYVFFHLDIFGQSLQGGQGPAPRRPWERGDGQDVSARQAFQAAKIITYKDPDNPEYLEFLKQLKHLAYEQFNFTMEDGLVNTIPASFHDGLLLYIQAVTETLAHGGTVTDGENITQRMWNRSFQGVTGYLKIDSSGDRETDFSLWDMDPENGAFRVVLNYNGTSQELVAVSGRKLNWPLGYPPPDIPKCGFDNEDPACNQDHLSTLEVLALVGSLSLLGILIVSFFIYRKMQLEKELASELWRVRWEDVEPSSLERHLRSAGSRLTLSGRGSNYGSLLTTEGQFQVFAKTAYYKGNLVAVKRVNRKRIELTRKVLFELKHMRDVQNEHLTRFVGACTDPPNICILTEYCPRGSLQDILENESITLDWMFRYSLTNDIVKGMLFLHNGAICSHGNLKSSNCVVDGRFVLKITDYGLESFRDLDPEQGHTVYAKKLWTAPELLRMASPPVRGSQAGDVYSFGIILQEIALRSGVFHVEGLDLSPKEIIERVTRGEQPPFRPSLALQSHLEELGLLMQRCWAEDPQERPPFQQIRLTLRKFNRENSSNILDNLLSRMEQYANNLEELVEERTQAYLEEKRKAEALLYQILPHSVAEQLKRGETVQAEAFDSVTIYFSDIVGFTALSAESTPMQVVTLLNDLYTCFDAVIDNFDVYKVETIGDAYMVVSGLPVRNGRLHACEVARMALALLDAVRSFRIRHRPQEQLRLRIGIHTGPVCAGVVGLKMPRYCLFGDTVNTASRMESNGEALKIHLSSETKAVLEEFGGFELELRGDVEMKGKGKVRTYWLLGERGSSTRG
Experimental: These cells were obtained from ATCC (Manassas, Va.) and cultured in medium 199, containing 10% fetal bovine serum and […] Gentamicin. (obtained from Gibco/Invitrogen; Carlsbad, Calif.).
Cells were seeded in 48-wells culture plates. On reaching confluence, the cells were rinsed twice with 0.5 ml Dulbeco's modified Eagle's medium (DMEM)/F-12. […] Natriuretic peptides (American Peptide Co. Inc., Sunnyvale, Calif.; Peninsula Labs. San Carlos, Calif.) were then added at the end of this period and the reaction was allowed to proceed for another 15 minutes at 23° C. After aspiration of the reaction medium, ice cold 0.1 M acetic acid ([…], pH 3.5) was added for the termination of cGMP synthesis and cell lysis. Finally, ice-cold 0.1 M sodium acetate ([…], pH 11.5-12.0) was added to neutralize the samples before analysis of cGMP by an enzyme immunoassay (EIA) kit. cGMP production in the cells was measured using the EIA kit purchased from Amersham Pharmacia Biotech (Piscataway, N.J.). This assay was conducted according to the package insert in an automated manner using a robotic workstation (Biomek 2000; Beckman Instrument, Fullerton, Calif.) (Sharif et al. Characterization of the ocular anti-allergic and anti-histaminic effects of Olopatadine (AL-4943A), a novel drug for treating ocular allergic diseases. J. Pharmacology & Experimental Therapeutics 278, 1251-1260, 1996; Crider et al. Pharmacological characterization of serotonin receptor (5HT7) stimulating cAMP production in human corneal epithelial cells. Invest. Ophthalmol. Vis. Sci. 44: 4837-4844, 2003). Data were analyzed using a non-linear, iterative curve-fitting computer program (IDBS, Surrey, UK) and Origin software package (Microcal Software, Inc., Northampton, Mass.) (Sharif et al. 1996; Crider et al. 2003).

[3] = molecular target: T3, Type-B natriuretic peptide receptor in human corneal epithelial cells (Homo sapiens, UniProt P20594); assay: Natriuretic peptide-stimulated cGMP production (guanylyl cyclase activity, EIA) in human corneal epithelial cells; details: cGMP production via type-B receptor
T3 construct: primary human corneal epithelial cells (P-CEPI) were isolated from human donor eyes; endogenous in cells; host or cells: primary human corneal epithelial cells (P-CEPI) and SV40-immortalized human corneal epithelial cells (CEPI-17-CL4)
T3 sequence (P20594 23-1047): T1 sequence (P20594 23-1047)
Experimental: Thus, primary human corneal epithelial cells (P-CEPI) were isolated from human donor eyes ≦24 hr postmortem and were cultured in EpiLife medium (Cascade Biologics, Portland, Oreg.) containing 1% human corneal growth supplement, 100 u/ml penicillin G, 100 mg/ml streptomycin sulfate. Culture plates were coated with fibronectin to help the cells adhere to the bottom of the plates. […]
In brief, compounds of interest were diluted in ethanol so that the final ethanol concentration was 1%, a concentration well tolerated by the cells. […] Finally, ice-cold 0.1 M sodium acetate (220 ml, pH 11.5-12.0) was added to neutralize the samples before analysis of cGMP by an enzyme immunoassay (EIA) kit. cGMP production in the cells was measured using the EIA kit purchased from Amersham Pharmacia Biotech (Piscataway, N.J.). […] Data were analyzed using a non-linear, iterative curve-fitting computer program (IDBS, Surrey, UK) and Origin software package (Microcal Software, Inc., Northampton, Mass.) (Sharif et al. 1996; Crider et al. 2003). […]

Molecule | Ki [1] [µM] | Agonist character in words [2] | Intrinsic Activity (Emax; % Max. Response) [2] [%] | Intrinsic Activity (Emax; % Max. Response) [3] [%]
O=C1Nc2ccccc2C1=O [isatin] | 18 ± 4 | – | – | –
C-type natriuretic peptide [CNP] | – | weak partial agonist | 26 | 100
brain natriuretic peptide [BNP] | – | potent full agonists | 94 | 50.2
